Read-outs that look alike come from different tables or passages of the source.
Key:
TNK2 = molecular target: T1, TNK2 (Homo sapiens, UniProt Q07912); type: binding; details: for remaining binding at 10 µM: read-out: Percent control
T1 construct: purchased DiscoveRx (KINOMEscan service)

FGFR3 = FGFR3 (Homo sapiens, UniProt P22607); details: 10 μM
FER = molecular target: T2, FER (Homo sapiens, UniProt P16591); type: binding; details: for Percent control: 10 μM
T2 construct: purchased DiscoveRx KINOMEscan
T2 sequence (P16591 whole entry): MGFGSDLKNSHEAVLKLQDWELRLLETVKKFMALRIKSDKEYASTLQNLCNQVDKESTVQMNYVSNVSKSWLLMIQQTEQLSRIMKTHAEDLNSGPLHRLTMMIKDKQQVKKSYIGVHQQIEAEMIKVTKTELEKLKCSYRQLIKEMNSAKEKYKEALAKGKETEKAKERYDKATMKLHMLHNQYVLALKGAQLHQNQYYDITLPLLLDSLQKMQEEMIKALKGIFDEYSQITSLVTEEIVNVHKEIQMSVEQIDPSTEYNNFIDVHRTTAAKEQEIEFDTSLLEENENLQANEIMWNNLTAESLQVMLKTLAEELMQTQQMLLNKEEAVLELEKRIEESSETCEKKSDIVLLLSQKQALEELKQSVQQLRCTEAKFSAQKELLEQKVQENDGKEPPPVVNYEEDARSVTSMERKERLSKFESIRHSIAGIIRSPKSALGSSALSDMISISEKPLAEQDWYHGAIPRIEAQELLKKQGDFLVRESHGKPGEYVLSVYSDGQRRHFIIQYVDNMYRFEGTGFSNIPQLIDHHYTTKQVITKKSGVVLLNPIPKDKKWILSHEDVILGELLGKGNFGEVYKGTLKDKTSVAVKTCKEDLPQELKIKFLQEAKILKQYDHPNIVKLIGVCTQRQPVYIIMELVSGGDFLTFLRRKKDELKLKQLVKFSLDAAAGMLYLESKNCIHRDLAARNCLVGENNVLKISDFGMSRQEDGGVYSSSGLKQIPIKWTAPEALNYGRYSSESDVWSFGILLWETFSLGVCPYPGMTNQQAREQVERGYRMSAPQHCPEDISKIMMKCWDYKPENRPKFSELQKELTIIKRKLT

MUSK = molecular target: T3, MUSK (Homo sapiens, UniProt O15146); type: binding; details: for remaining binding at 10 µM: read-out: Percent control
T3 construct: purchased DiscoveRx KINOMEscan
T3 sequence (O15146 24-869): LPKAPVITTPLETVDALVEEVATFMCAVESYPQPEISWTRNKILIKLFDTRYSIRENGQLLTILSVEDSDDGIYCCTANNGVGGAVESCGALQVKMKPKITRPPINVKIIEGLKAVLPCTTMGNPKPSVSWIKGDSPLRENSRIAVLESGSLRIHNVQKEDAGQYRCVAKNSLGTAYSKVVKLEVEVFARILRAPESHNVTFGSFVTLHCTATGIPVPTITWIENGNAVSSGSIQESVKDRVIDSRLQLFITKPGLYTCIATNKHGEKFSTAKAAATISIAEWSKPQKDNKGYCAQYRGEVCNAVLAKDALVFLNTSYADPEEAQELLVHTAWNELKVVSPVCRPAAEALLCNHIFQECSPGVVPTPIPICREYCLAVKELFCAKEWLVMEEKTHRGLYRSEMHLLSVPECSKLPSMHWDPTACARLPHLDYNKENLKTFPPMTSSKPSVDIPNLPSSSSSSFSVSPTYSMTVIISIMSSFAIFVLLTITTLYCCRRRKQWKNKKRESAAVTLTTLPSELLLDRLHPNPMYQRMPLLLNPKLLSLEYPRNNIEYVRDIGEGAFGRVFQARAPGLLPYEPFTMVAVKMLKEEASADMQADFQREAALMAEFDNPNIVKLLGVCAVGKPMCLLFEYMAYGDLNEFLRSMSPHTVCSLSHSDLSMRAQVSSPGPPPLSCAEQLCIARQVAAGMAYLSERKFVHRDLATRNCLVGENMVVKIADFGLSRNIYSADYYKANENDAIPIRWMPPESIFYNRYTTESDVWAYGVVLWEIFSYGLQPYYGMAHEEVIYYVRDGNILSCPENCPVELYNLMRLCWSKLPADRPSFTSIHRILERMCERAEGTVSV

EPHA4 = molecular target: T4, EPHA4 (Homo sapiens, UniProt P54764); type: binding; details: 10 μM
T4 construct: purchased DiscoveRx KINOMEscan
T4 sequence (P54764 20-986): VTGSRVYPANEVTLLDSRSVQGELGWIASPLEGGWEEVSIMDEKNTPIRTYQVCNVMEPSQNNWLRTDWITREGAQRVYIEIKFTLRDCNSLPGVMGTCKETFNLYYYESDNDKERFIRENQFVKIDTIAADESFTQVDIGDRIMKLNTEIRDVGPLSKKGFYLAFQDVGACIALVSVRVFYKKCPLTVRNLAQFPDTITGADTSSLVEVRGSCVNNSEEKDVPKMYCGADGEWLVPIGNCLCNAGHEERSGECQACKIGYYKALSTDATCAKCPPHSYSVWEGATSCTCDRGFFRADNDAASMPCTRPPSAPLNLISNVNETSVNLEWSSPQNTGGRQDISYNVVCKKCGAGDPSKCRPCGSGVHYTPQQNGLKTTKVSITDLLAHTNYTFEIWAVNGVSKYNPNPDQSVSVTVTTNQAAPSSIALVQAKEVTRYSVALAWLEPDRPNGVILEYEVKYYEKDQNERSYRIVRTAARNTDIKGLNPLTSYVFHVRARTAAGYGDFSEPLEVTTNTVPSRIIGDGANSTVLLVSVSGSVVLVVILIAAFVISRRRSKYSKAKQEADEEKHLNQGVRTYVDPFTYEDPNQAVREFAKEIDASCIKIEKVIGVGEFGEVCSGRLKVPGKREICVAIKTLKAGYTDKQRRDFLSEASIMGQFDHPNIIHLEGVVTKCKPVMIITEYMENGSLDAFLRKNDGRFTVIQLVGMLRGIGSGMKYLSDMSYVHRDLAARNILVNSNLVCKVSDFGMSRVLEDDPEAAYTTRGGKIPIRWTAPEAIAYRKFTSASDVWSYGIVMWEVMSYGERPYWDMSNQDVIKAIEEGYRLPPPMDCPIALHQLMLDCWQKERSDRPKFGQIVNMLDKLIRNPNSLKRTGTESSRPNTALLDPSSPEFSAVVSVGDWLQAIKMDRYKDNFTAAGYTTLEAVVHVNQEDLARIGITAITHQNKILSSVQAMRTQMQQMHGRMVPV

FAK = molecular target: T5, FAK (Homo sapiens, UniProt Q05397); type: binding; details: for remaining binding at 10 µM: read-out: Percent control
T5 construct: purchased DiscoveRx KINOMEscan

EPHA5 = EPHA5 (Homo sapiens, UniProt P54756); details: 10 μM
ZAP70 = molecular target: T6, ZAP70 (Homo sapiens, UniProt P43403); details: 10 μM
T6 sequence (P43403 1-619): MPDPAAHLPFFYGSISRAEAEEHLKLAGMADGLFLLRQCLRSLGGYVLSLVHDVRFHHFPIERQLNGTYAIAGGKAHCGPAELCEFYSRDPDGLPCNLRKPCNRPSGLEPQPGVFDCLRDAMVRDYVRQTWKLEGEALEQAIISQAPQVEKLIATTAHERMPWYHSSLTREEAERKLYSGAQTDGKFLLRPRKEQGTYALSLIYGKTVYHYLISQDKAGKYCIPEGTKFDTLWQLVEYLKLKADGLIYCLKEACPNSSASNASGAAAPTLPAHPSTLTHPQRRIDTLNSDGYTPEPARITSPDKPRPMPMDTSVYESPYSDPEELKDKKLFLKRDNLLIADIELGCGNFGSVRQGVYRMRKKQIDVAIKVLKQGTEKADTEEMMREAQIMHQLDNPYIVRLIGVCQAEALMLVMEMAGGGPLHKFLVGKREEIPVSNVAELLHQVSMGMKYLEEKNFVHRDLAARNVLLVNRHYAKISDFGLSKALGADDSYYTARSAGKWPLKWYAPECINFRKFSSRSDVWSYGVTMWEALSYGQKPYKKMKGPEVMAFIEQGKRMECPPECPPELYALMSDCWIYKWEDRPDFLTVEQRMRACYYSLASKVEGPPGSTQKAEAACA

IGF1R = molecular target: T7, IGF1R (Homo sapiens, UniProt P08069); type: binding; details: for remaining binding at 10 µM: read-out: Percent control
T7 construct: purchased DiscoveRx KINOMEscan
T7 sequence (P08069 31-1367): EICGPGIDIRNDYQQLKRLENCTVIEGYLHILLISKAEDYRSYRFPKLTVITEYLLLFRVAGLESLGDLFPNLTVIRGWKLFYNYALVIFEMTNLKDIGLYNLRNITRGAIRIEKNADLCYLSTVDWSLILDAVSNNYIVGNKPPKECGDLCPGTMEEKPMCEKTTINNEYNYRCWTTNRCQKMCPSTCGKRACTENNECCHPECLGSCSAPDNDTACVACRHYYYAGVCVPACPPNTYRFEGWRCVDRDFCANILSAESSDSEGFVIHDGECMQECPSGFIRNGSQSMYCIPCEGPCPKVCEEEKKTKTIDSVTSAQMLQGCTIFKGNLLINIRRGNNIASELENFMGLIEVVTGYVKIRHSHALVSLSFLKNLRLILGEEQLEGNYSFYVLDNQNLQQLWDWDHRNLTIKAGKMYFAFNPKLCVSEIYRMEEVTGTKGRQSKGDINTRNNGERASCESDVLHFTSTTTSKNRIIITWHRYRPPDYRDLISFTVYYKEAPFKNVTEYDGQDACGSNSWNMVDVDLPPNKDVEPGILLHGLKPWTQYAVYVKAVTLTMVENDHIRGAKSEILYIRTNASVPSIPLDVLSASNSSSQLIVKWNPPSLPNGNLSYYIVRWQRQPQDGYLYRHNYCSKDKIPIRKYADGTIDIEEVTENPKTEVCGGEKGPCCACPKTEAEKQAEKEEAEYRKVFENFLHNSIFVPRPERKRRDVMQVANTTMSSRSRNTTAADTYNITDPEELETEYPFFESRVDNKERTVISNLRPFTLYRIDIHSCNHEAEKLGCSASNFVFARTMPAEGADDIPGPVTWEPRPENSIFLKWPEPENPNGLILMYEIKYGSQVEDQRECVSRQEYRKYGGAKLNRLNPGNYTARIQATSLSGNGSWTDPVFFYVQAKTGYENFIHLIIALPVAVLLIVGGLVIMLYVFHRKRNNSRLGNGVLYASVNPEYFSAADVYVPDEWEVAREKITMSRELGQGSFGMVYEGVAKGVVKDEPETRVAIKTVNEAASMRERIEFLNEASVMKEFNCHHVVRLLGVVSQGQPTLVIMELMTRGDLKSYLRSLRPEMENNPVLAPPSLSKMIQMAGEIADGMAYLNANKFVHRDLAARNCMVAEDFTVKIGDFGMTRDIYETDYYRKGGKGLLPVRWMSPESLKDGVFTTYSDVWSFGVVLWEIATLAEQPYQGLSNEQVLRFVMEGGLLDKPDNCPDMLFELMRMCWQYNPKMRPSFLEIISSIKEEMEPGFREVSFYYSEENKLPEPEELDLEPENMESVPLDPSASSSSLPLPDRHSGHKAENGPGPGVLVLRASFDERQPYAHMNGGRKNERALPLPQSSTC

EPHB2 = molecular target: T8, EPHB2 (Homo sapiens, UniProt P29323); test: biochemical; details: read-out: Percent control
T8 sequence (P29323 19-1055): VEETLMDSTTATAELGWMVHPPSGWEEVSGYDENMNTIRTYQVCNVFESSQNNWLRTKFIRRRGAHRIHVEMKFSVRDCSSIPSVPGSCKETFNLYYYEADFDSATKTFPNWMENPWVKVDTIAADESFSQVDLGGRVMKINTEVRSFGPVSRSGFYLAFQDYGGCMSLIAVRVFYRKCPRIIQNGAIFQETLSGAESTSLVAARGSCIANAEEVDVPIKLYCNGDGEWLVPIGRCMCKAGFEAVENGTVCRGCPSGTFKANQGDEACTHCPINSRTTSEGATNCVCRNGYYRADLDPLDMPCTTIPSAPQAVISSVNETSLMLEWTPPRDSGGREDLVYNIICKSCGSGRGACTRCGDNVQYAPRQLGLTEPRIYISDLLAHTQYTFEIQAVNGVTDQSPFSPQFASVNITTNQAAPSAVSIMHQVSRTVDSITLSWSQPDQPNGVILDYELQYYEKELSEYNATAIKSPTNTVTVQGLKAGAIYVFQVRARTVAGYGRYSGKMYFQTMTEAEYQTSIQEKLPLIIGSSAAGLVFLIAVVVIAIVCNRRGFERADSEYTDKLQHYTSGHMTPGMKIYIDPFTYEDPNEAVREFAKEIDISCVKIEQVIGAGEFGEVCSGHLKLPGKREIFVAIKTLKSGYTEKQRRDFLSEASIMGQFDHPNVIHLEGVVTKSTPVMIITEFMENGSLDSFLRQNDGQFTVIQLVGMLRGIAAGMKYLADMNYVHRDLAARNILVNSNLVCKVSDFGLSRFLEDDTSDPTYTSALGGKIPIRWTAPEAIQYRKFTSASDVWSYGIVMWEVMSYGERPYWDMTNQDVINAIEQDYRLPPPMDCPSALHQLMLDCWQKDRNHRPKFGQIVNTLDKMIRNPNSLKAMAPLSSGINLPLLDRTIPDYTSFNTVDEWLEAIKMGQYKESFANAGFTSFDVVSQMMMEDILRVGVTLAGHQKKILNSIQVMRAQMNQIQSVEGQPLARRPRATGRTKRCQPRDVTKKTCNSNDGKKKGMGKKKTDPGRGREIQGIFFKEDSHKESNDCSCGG

T1 sequence (Q07912 whole entry): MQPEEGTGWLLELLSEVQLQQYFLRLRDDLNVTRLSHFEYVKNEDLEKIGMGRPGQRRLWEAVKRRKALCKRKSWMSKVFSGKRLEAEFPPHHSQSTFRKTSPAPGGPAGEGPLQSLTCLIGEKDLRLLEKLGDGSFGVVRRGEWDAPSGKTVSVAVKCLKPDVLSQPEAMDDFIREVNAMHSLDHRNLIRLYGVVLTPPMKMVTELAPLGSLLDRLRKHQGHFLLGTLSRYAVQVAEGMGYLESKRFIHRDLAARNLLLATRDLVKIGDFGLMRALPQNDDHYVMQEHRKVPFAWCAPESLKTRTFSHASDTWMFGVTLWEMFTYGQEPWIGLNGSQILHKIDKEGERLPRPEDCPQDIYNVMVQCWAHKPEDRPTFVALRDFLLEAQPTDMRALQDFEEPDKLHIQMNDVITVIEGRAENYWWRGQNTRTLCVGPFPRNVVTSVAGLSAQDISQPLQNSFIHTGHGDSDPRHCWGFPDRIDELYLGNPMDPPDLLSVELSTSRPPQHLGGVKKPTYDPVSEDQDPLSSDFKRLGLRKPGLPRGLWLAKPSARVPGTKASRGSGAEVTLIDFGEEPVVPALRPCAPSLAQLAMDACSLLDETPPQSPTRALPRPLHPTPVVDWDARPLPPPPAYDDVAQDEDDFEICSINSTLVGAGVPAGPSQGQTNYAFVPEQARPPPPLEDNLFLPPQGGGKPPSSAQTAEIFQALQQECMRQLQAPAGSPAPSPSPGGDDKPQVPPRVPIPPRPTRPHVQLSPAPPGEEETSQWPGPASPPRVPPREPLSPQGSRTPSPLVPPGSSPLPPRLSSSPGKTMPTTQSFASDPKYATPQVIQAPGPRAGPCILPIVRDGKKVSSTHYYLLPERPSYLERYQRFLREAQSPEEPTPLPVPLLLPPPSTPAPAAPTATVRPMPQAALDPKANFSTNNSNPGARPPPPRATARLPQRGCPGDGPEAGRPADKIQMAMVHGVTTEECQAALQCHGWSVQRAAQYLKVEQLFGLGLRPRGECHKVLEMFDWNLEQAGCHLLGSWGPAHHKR
Sequence of FGFR3 (P22607 23-806): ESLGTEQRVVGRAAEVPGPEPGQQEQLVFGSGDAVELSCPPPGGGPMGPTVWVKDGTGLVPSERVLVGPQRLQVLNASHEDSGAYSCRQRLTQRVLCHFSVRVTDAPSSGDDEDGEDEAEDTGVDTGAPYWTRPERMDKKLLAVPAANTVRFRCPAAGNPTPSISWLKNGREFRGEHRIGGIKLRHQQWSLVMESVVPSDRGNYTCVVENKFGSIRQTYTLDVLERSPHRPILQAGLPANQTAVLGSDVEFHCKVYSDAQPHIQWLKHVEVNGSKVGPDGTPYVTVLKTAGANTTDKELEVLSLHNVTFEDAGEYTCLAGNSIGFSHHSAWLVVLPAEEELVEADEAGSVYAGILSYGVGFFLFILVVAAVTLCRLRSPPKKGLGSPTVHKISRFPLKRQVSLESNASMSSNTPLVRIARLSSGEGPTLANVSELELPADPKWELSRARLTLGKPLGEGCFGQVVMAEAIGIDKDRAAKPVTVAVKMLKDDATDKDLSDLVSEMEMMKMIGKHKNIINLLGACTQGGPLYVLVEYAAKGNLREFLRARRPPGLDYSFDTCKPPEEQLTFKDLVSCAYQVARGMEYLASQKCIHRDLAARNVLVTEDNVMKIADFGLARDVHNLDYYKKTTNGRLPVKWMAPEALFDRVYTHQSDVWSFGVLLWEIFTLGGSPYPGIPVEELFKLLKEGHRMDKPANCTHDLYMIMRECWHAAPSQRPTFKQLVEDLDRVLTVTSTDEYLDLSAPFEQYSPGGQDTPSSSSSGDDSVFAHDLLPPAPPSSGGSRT

With `Cc1ccc(NC(=O)c2ccc(CN3CCN(C)CC3)cc2)cc1Nc1nccc(-c2cccnc2)[n+]1[Pt-2]1([Cl])[NH2+]C2CCCCC2[NH2+]1` (stereo not drawn) [1b, oxaliplatin-imatinib] as the molecule, how does the Percent control (TNK2; TNK2, 10 μM) read?
Its Percent control is 100%.

What about the Percent control (FGFR3) of the same molecule?
The Percent control was 94%.

What about the Percent control (FER) of the same molecule?
Its Percent control is 89%.

What about the Percent control (MUSK; MUSK, 10 μM) of the same molecule?
Its Percent control is 100%.

And the Percent control (EPHA4)?
Its Percent control is 88%.

What about the Percent control (FAK; FAK, 10 μM) of the same molecule?
The Percent control was 90%.

What about the Percent control (EPHA5) of the same molecule?
The Percent control was 100%.

And the Percent control (ZAP70)?
Its Percent control is 100%.

And the Percent control (IGF1R; IGF1R, 10 μM)?
Its Percent control is 100%.

How did the Percent control (TNK2) turn out when `C#Cc1cccc(Nc2c3cc(OCCOC)c(OCCOC)cc3nc[n+]2[Pt@SP2-2]([NH3+])([NH3+])[Cl])c1` [2a, cisplatin-erlotinib] was run?
Its Percent control is 100.

What about the Percent control (FGFR3) of the same molecule?
Its Percent control is 89%.

And the Percent control (FER)?
Its Percent control is 95%.

And the Percent control (MUSK; MUSK, 10 μM)?
Its Percent control is 97%.

What about the Percent control (EPHA4) of the same molecule?
The Percent control was 79%.

And the Percent control (FAK; FAK, 10 μM)?
The Percent control was 94%.

What about the Percent control (EPHA5) of the same molecule?
The Percent control was 100%.

And the Percent control (ZAP70)?
Its Percent control is 89%.

What about the Percent control (IGF1R; IGF1R, 10 μM) of the same molecule?
The Percent control was 86%.

How did the Percent control (TNK2; TNK2, 10 μM) turn out when `COc1cc2c(Nc3ccc(Br)cc3F)[n+]([Pt-2]3([Cl])[NH2+]C4CCCCC4[NH2+]3)cnc2cc1OCC1CCN(C)CC1` (stereo not drawn) [3b, oxaliplatin-vandetanib] was run?
The Percent control was 100%.

What about the Percent control (FER) of the same molecule?
The Percent control was 90%.

And the Percent control (MUSK; MUSK, 10 μM)?
Its Percent control is 95%.

And the Percent control (FAK; FAK, 10 μM)?
The Percent control was 86%.

What about the Percent control (EPHA5) of the same molecule?
The Percent control was 78%.

What about the Percent control (ZAP70) of the same molecule?
Its Percent control is 99%.

What about the Percent control (IGF1R; IGF1R, 10 μM) of the same molecule?
Its Percent control is 100%.

What does the source list for `C#Cc1cccc(Nc2ncnc3cc(OCCOC)c(OCCOC)cc23)c1` [Erlotinib]?
remaining binding at 10 µM (TNK2; TNK2, 10 μM): 100%; remaining activity at 10 µM (EPHB2): 100%; remaining binding at 10 µM (MUSK): 100%; remaining binding at 10 µM (FAK): 100%; remaining binding at 10 µM (IGF1R): 100%

`Cc1ccc(NC(=O)c2ccc(CN3CCN(C)CC3)cc2)cc1Nc1nccc(-c2cccnc2)n1` [Imatinib, reference compound] was tested. Which Percent control (TNK2; TNK2, 10 μM) did it give?
The Percent control was 100%.

What about the remaining activity at 10 µM (EPHB2) of the same molecule?
The remaining activity at 10 µM was 100%.

And the Percent control (FGFR3)?
Its Percent control is 100%.

What about the Percent control (FER) of the same molecule?
Its Percent control is 100%.

What about the Percent control (MUSK; MUSK, 10 μM) of the same molecule?
Its Percent control is 100%.

What about the Percent control (EPHA4) of the same molecule?
The Percent control was 100%.

And the Percent control (FAK; FAK, 10 μM)?
Its Percent control is 100%.

What about the Percent control (ZAP70) of the same molecule?
The Percent control was 100%.

What about the Percent control (IGF1R; IGF1R, 10 μM) of the same molecule?
The Percent control was 100%.

What does the source list for `COc1cc2c(Nc3ccc(Br)cc3F)ncnc2cc1OCC1CCN(C)CC1` [Vandetanib, reference compound]?
remaining binding at 10 µM (TNK2; TNK2, 10 μM): 100%; remaining activity at 10 µM (EPHB2): 4.2%; remaining binding at 10 µM (FER; read-out: Percent control): 100%; remaining binding at 10 µM (MUSK; MUSK, 10 μM): 100%; remaining binding at 10 µM (FAK; FAK, 10 μM): 100%; remaining binding at 10 µM (IGF1R; IGF1R, 10 μM): 100%

From article PMC4858680, “A platinum-based hybrid drug design approach to circumvent acquired resistance to molecular targeted tyrosine kinase inhibitors” (Scientific Reports, 2016)
